A melting point compilation (Tetko et al.)

Row | SMILES | melting point [°C]
1 | CNS(=O)(=O)c1ccc(C)c(N)c1 | 83 to 85
2 | Oc1cccc(-c2nccc(Cl)n2)c1 | 135 to 137
3 | O=c1[nH]nc(-c2ccccc2)cc1C(F)(F)F | 184 to 186
4 | CC(O)CCNc1cc2nc[nH]c(=O)c2cc1N (stereo not drawn) | 209 to 211
5 | C/C(=N\OCC(=O)O)c1ccc2c(c1)OCO2 | 136 to 138
6 | CC(=O)CC(=O)Nc1ccc(F)cc1 | 101 to 103
7 | Cc1sc2ncnc(N3CCC(C(=O)O)CC3)c2c1C | 244 to 246
8 | O=[N+]([O-])c1ccc(Oc2ccc([N+](=O)[O-])cc2)cc1 | 144 to 146
9 | CN1CCC2(CC1)NC(=O)NC2=O | 283 to 285
10 | Nc1ccc(S(N)(=O)=O)cc1Br | 153 to 155
11 | COc1ccc(C(C)=O)cc1Br | 82 to 84
12 | O=C1CC(=O)CC2(CCCCC2)C1 | 169 to 171
13 | Nc1ccc(Cl)nc1C(=O)O | 219 to 221
14 | NCc1cccc(NC(N)=O)c1 | 143 to 145
15 | O=c1c2ccccc2ncn1CCBr | 105 to 107
16 | N#Cc1ccc(N2CCCC2=O)cc1 | 106 to 108
17 | CCNC(=O)c1cccc(NC(=O)CCl)c1 | 173 to 175
18 | O=S1(=O)Nc2cccc3cccc1c23 | 175 to 177
19 | O=C1CCCc2c1[nH]c1ccccc21 | 169 to 171
20 | Cc1cc(N)nc(C)c1Br | 147 to 149
21 | Nc1cc(F)c(Br)cc1N | 104 to 106
22 | CNS(=O)(=O)c1ccc(N)cc1OC | 187 to 189
23 | CC(C)Oc1ccc(C#N)cc1 | 50 to 52
24 | CNc1c(F)cccc1C(N)=O | 186 to 188
25 | CC(NS(=O)(=O)Cc1ccccc1)C(=O)O (stereo not drawn) | 119 to 121
26 | Cn1nc[nH]c1=O | 169 to 171

Row | SMILES | melting point [°C]
27 | CCOc1cc(N)ccc1OC | 77 to 79
28 | O=C(O)Cn1c(SC(F)F)nc2ccccc21 | 188 to 203
29 | CC(=O)N1CCN(CCC(=O)O)CC1 | 114 to 116
30 | COc1ccccc1OCc1ccccc1N | 55 to 57
31 | CN(C)c1ccc(Br)c(S(=O)(=O)Cl)c1 | 111 to 113
32 | Cc1cccc(OCCNc2ccc(F)cc2N)c1 | 76 to 78
33 | NNC(=O)CSc1ccccc1O | 134 to 136
34 | CC(C)CNC(=O)CC#N | 57 to 59
35 | CCOC(=O)COc1ccc(Br)cc1F | 30 to 32
36 | COc1cc(N)ccc1S(N)(=O)=O | 241 to 243
37 | N#CCc1cc(Cl)c2c(c1)OCCO2 | 102 to 104
38 | CN(C)Cc1ccc(-c2ccccc2C#N)cc1 | 44 to 46
39 | O=C(CCl)c1ccc2c(c1)CCC2 | 47 to 58
40 | CN(C)S(=O)(=O)c1cc(C(=O)O)ccc1F | 199 to 201
41 | O=c1ccc2c([nH]1)CCC2 | 35 to 39
42 | NS(=O)(=O)c1c(Cl)cccc1C(F)(F)F | 155 to 157
43 | O=C1NCCc2ccc(Br)cc21 | 144 to 146
44 | O=C1CSC(=Cc2nc3ccccc3s2)N1 | 186 to 188
45 | CC1CCN(S(=O)(=O)c2ccc(N)cc2)CC1 | 108 to 110
46 | O=C(O)C(O)C1CC1 (stereo not drawn) | 66 to 68
47 | CSc1nc2[nH]cnc(=O)c2s1 | 269 to 271
48 | CCCCCCOc1ccc(C(=O)O)cc1OC | 122 to 124
49 | NS(=O)(=O)CCc1ccc([N+](=O)[O-])cc1 | 118 to 120
50 | Cc1cc(N)n(-c2ccc(C(F)(F)F)cn2)n1 | 119 to 121
51 | COc1ccc(Cl)cc1NC(=O)CC(=O)Nc1cc(Cl)ccc1OC | 98 to 101
52 | CS(=O)(=O)Cc1nc2ccccc2n1CC(=O)O | 249 to 251

Row | SMILES | melting point [°C]
53 | Cn1c(-c2ccccc2)c(C(=O)CC#N)c2ccccc21 | 155 to 157
54 | Fc1ccccc1CCNC1=NCCS1 | 95 to 97
55 | N#Cc1ccc(OCCN)nc1 | 101 to 103
56 | COc1ccccc1SCC(=O)NN | 109 to 111
57 | Nc1nnc(Cl)s1 | 179 to 181
58 | N#CCOc1cccc(CC(=O)O)c1 | 79 to 81
59 | Cc1noc2nc(-c3cccc(Cl)c3)cc(C(=O)O)c12 | 239 to 241
60 | O=C(CCl)NCCc1nc2ccccc2s1 | 90 to 92
61 | O=C(O)C1CNc2ccccc21 (stereo not drawn) | 178 to 180
62 | O=C(O)c1oc2cc(Cl)ccc2c1-c1ccccc1 | 229 to 231
63 | Cn1cc(C=O)c(-c2ccc(C#N)cc2)n1 | 156 to 158
64 | CCOC(O)=C1Nc2ccccc2C1=O | 92 to 94
65 | NC(=O)C1CC(C(=O)O)=NN1c1ccc(F)cc1 (stereo not drawn) | 219 to 221
66 | NC(=O)CC1CCNCC1 | 146 to 148
67 | CC(Cl)C(=O)N1CCCC(C(N)=O)C1 (stereo not drawn) | 114 to 116
68 | NC(=O)c1c(C2CCCCC2)csc1N | 164 to 166
69 | Cc1sc(=O)[nH]c1-c1ccccc1 | 171 to 173
70 | O=C(O)c1ccc(Oc2ccccc2Cl)cc1 | 144 to 146
71 | Cc1cc(F)cc2c(Cl)c(C#N)cnc12 | 137 to 139
72 | Cc1ccc(-c2csc(CC(N)=NO)n2)cc1 | 146 to 148
73 | Cc1sc([N+](=O)[O-])cc1[N+](=O)[O-] | 81 to 83
74 | ClCc1csc(-c2ccco2)n1 | 76 to 78
75 | COc1ccc(Br)cc1NCc1cccnc1 | 66 to 68
76 | Clc1cccc(Nc2nc3ccccc3s2)c1 | 173 to 175
77 | Nc1cccc(-c2nnnn2C2CC2)c1 | 137 to 139
78 | Cc1cc(-n2nc(C)cc2N)nc(C)n1 | 104 to 106

Row | SMILES | melting point [°C]
79 | O=C(O)C1(c2ccc(F)cc2F)CCOCC1 | 134 to 136
80 | N#Cc1cc(Cl)nc2ccc(Cl)cc12 | 168 to 170
81 | O=C1CN(c2ccccc2)CCCN1 | 191 to 193
82 | O=C(O)C1CC2CCCC(C1)C2=O (stereo not drawn) | 129 to 131
83 | Cc1cc(NC(=O)c2ccc(F)cc2Cl)sc1C(=O)O | 207 to 209
84 | CC(C)c1ccc(SC(C(=O)O)c2ccccc2)cc1 (stereo not drawn) | 99 to 101
85 | Clc1nc(-c2cccnc2)nc2sc(-c3ccccc3)cc12 | 179 to 182
86 | CCc1cc2c(=O)[nH]c(N3CCCC3)nc2s1 | 253 to 255
87 | N#Cc1ccc(N2CCCC(N)C2=O)cc1 (stereo not drawn) | 101 to 103
88 | CC1(c2ccccc2)NC(=O)N(CC(=O)O)C1=O (stereo not drawn) | 170 to 172
89 | CCOc1ccc(NC2CCN(CC(F)(F)F)CC2)cc1 | 54 to 56
90 | O=C1CCOc2c1cc(Br)cc2[N+](=O)[O-] | 104 to 106
91 | Nc1ccc(C(=O)N2CCC(CO)CC2)cc1 | 138 to 140
92 | Cc1noc(C2CC2)c1C(=O)O | 164 to 166
93 | COC(=O)c1sc2nc(CCl)[nH]c(=O)c2c1C | 276 to 278
94 | O=c1c2cc(Cl)ccc2nc2n1CCC2 | 180 to 182
95 | CCN(CC)S(=O)(=O)c1ccc(N2CCNCC2)c([N+](=O)[O-])c1 | 131 to 133
96 | COc1ccc(F)cc1[N+](=O)[O-] | 62 to 64
97 | COc1ccc(F)cc1C(=O)CBr | 74 to 76
98 | CC(C)(C)c1cc(N)n(-c2cccc(Cl)c2)n1 | 99 to 101
99 | O=C(O)c1cc(S(=O)(=O)Cl)cc(Br)c1Cl | 160 to 162
100 | Cc1ccc(C#N)c(Br)c1 | 50 to 55
101 | CCOc1cccc2[nH]c(C(=O)O)cc12 | 255 to 257
102 | O=C(CCl)NC1CCC(C(F)(F)F)CC1 (stereo not drawn) | 65 to 67
103 | O=C1OC(C=Cc2ccccc2)=NC1=Cc1cccnc1 | 165 to 167
